Several values for one entry are separate records, joined by “and”; a condition that tells them apart may be missing. Equal entries are not always repeated. Where two headings read alike, the source gives them in different places.
Legend:
[1] = tested on: patients with severe chronic pain; test: Laxative intake / mean laxative dose, Example 1; format: in vivo, human
Experimental: d) Laxative intake/mean laxative dose, which was calculated from the respective case report forms (CRF) entries. An analysis of the mean laxative dose during the last seven days was performed for patients who took only one laxative during the entire study. Entries from the medication record CRF page were used for all calculations (laxatives were identified by the WHO ATC Code A06A). For laxative intake number of days with laxation during the last 7 days and the percentage of days with laxation during the last 7 days were calculated for each study visit. In addition, the percentage of days with laxation during the whole maintenance phase and during the follow-up phase was calculated.

[2] = tested on: experimental human pain model, healthy volunteers; test: Pain-related evoked potentials (EEG) after CO2 stimulation of the nasal mucosa, Example 4; format: in vivo; conditions: for Magnitude of reduction of amplitude P1N1 at C4 compared to baseline: 60% CO2
Experimental: This was a single site, single dose, double blind, placebo-controlled, 5-treatment, 5-period, randomized, balanced crossover study in healthy adult male and female subjects. […] Subjects were allocated each of the 5 treatments described in the synopsis according to a random allocation schedule (RAS). There was a 7-day washout period
Analgesic effects were assessed by means of an experimental human pain model based on the chemosomatosensory pain-related cortical potentials (CSSEPs) and pain-ratings after specific phasic nociceptive stimulation of the nasal mucosa with gaseous CO2. In addition, intensity estimates of tonic pain produced by stimulation of the nasal mucosa with dry air at controlled flow and temperature were employed.
Within the present pain model, the following were used as indicators of analgesia: • post-treatment decrease in pain-ratings and/or • post-treatment decrease in amplitudes of pain-related evoked potentials and/or • post-treatment increase in latencies of pain-related evoked potentials, relative to the pretreatment values.
1. Base-to-peak amplitudes P1, N1 and P2, peak-to-peak amplitudes P1 N1 and N1P2 of pain related evoked potentials 2. Latencies P1, N1 and P2 of pain-related evoked potentials 3. Intensity estimates of phasic (C02-) pain 4. Intensity estimates of tonic pain
(§1) In the first 20 minutes, 40 phasic CO2-stimuli were applied (20 stimuli at a concentration of 70% and 20 at a concentration of 60%, interstimulus interval 30 s). In response to these stimuli, pain-related potentials and subjective intensity estimates were recorded.
(§2) CO2-stimuli were mixed in a constantly flowing air stream with controlled temperature (36.5° C.) and humidity (80% relative humidity) presented to the left nostril (stimulus duration 200 ms, interstimulus interval 30 s). […] During intervals between phasic stimuli subjects performed a simple tracking task on a video screen. Using a joystick, they had to keep a small square inside a larger one that randomly moved around.
The EEG was recorded from 5 positions of the international 10/20 system (Cz, C3, C4, Fz and Pz; see FIG. 40) referenced to linked earlobes (A1+A2). Possible eye blink artifacts were monitored from an additional site (Fp2/A1+A2). Stimulus linked EEG segments of 2040 ms duration were sampled with a frequency of 250 Hz (band pass 0.2-30 Hz, pre-stimulus period 512 ms). The recorded analog EEG segments were then converted to digital and filed electronically. The average value for each recording position was separately calculated, discarding all eye blink contaminated records. By this procedure pain-related evoked potentials were obtained in response to the painful CO2 stimuli. Base to peak amplitudes P1, N1 and P2, the peak to peak amplitudes P1 N1 and N1 P2 and the latencies of P1, […] and P2 were measured. Wherever the time of measurement was used in the data analysis, the mid-time of a session was taken. FIG. 40 presents the components of the pain-related evoked potentials.

[3] = tested on: experimental human pain model, healthy volunteers; test: Intensity estimates of phasic (CO2) pain, Example 4; format: in vivo; conditions: 70% CO2; 45 mg naloxone with 20 mg oxycodone
Experimental: as §1, with “recorded. Subsequently, tonic pain was induced for 16 minutes and subjects had to rate the intensity of the dull, burning pain.” for “recorded.”
as §2
Within 3-4 seconds after presentation of each CO2 stimulus, subjects compared the perceived intensity to a standard stimulus (70% v/v CO2) presented at the beginning of the first session of each trial day. […] The intensity of the standard stimulus was defined as 100 Estimation Units (EU). The mid-time of a session was regarded as time of measurement. Intensity estimates of the CO2 stimuli (60% and 70%) were evaluated separately for each concentration. On a trial day, the ratings of each post-treatment session were evaluated relative to base line values. […]

[4] = tested on: patients with severe chronic pain of tumour and non-tumour origin; conditions: for Mean Pain, Mean (SD) V3: V3 end of titration; for Mean Pain, Mean (SD) V5: V5 end of maintenance
Experimental: The pre-randomization phase consisted of screening and titration/run-in. Following screening, patients entered either a titration or run-in period. Patients with insufficient pain pre-treatment entered a minimum 2-week titration period and were individually titrated and stabilized at an oxycodone dose of 40 mg, 60 mg or 80 mg per day. Patients on stable oxycodone pre-treatment at screening (between 40-80 mg/day) and with concomitant constipation, entered a 1 week run-in period and were eligible for the maintenance phase without prior titration. For all patients, the dose of oxycodone could be adjusted during titration or run-in and investigators maintained compulsory telephone contact every 2nd day to assess pain control and make dose changes.
(§3) a) Mean Pain during the last 7 days prior to each visit, based on the patient's twice-daily assessment of pain intensity using the 0-100 numerical analogue scale (NAS) (0=no pain and 100=worst imaginable pain). Mean Pain was calculated for each study visit as the mean value of the daily mean values of all patient's diary entries from the last 7 days. b) Mean bowel function: patient's assessment, at each study visit, of bowel function during the last 7 days prior to each visit. Mean bowel function was calculated from the mean of the three 0-100 NAS scores: ease of defecation (0=easy/no difficulty, 100=severe difficulty), feeling of incomplete bowel evacuation (0=not at all, 100=very strong), and judgment of constipation (0=not at all, 100=very strong). Secondary efficacy variables of interest included among others: c) Global assessment of efficacy, tolerability and preference. […] Tolerability was measured using the same 0 to 7 numerical analogue scale.

[5] = tested on: bowel function of pain patients on oxycodone with need for laxatives; conditions: for Mean Bowel Function Score, Mean (SD) V3: V3 end of titration; for Mean Bowel Function Score, Mean (SD) V5: V5 end of maintenance
Experimental: as §3
Mean bowel function was calculated for each study visit from the mean of the three NAS values ease/difficulty of defecation, feeling of incomplete bowel evacuation and judgment of constipation.
In addition, two-sided 95% CIs (CI, confidence interval) for the difference in means between the treatment groups were provided. […] These analyses were performed for the ITT and PP populations.
The parameter estimates derived were taken to display a surface plot of the whole dose range investigated. Moreover, a contour plot of the bowel function with a granulation of 10 was performed.

[6] = oral administration; extensive first-pass-metabolism; cited from earlier work
[7] = tested on: rats physically dependent on oxycodone; test: Naloxone-precipitated withdrawal in oxycodone-dependent rats (Gellert-Holtzman global rating, graded and checked signs), Example 5; conditions: i.v.
Experimental: Rats were implanted with Alzet 2ML 1 osmotic minipumps infusing either saline vehicle or oxycodone at 1.5 mg/kg/h for 7 days as described above. […] The complete parametric design for oxycodone-pump implanted rats required testing rats with vehicle:vehicle and oxycodone:vehicle.
Signs of physical dependence were evaluated in rats intravenously administered the drugs, and then immediately placed back in their home cages for a 60-min observation period. […] The table is divided into Graded Signs and Checked Signs, and assigned a weighted factor. The rats were evaluated for these signs during the 60 min observation period, the scores were collected, and a combined Global Score was assigned to each rat. Data were analyzed by combining the graded signs of escape attempts and wet-dog shakes into a single score of Grades Signs during each 15-min interval for 60-min. Checked signs were analyzed during each 15-min interval for 60-min.
The rats were assessed in 15-min intervals for both graded and checked signs for a total of 60 min. The graded signs of escape attempts and wet-dog shakes were tallied, whereas, checked signs such as diarrhea, profuse salivation, chromodactorrhea, etc. were noted as being either absent or present during the 15-min period. Both graded and checked signs were assigned a numeric score based on studies by Gellert and Holtzman (1978), and the total value for each animal was added to provide a global rating.
The incidence of checked signs during opioid withdrawal was also analyzed statistically within each time interval at 0-15, 15-30, 30-45 and 45-60 minutes. The data was analyzed within each time interval using contingency table Person's Chi Square analysis (Sigma Stat Statistical Software, SPSS, Inc.) to evaluate the X2 value. X2 values exceeding the critical value for 7 of 14.1 were considered statistically significant intervals for that checked behavioral sign.

[8] = naloxone 10 mg/day + oxycodone 40-80 mg/day
[9] = naloxone 20 mg/day + oxycodone 40-80 mg/day
[10] = naloxone 40 mg/day + oxycodone 40-80 mg/day
[11] = ITT non-missing, naloxone 10 mg/day + oxycodone 40-80 mg/day
[12] = ITT non-missing, naloxone 20 mg/day + oxycodone 40-80 mg/day
[13] = ITT non-missing, naloxone 40 mg/day + oxycodone 40-80 mg/day
[14] = PP, naloxone 20 mg/day + oxycodone 40-80 mg/day
[15] = PP, naloxone 40 mg/day + oxycodone 40-80 mg/day
[16] = ITT/LOCF, naloxone 10 mg/day + oxycodone 40-80 mg/day
[17] = ITT/LOCF, naloxone 20 mg/day + oxycodone 40-80 mg/day
[18] = ITT/LOCF, naloxone 40 mg/day + oxycodone 40-80 mg/day

C=CCN1CC[C@]23c4c5ccc(O)c4O[C@H]2C(=O)CC[C@@]3(O)[C@H]1C5 [Naloxone, naloxone]
Mean number of days with laxative intake during the last 7 days prior to the end of maintenance [1, 8]: 2.6±3.34
Percentage of days (mean±SD) with laxation during the entire maintenance phase [1, 8]: 36.5±33.50
Mean number of days with laxative intake during the last 7 days prior to the end of maintenance [1, 9]: 2.0±3.14
Percentage of days (mean±SD) with laxation during the entire maintenance phase [1, 9]: 31.3±41.38
Mean number of days with laxative intake during the last 7 days prior to the end of maintenance [1, 10]: 1.6±2.93
Percentage of days (mean±SD) with laxation during the entire maintenance phase [1, 10]: 27.8±41.25
Magnitude of reduction of amplitude P1N1 at C4 compared to baseline ([2]; 20 mg oxycodone in combination with 5 mg naloxone): 24.5%
Magnitude of reduction of amplitude P1N1 at C4 compared to baseline ([2]; 20 mg oxycodone in combination with 15 mg naloxone): 23.7%
Dose of naloxone PR that does not significantly influence the analgesic effect (EEG) of oxycodone ([2]; based on 20 mg oxycodone PR): below 15 mg
Intensity estimates of phasic pain stimuli, naloxone effect [3]: seemed to antagonize partly the oxycodone effect
Mean Pain, Mean (SD) V3 [4, 11]: 35.9 (16.3)
Mean Pain, Mean (SD) V3 [4, 12]: 39.8 (18.4)
Mean Pain, Mean (SD) V5 [4, 11]: 37.2 (17.3)
Mean Pain, Mean (SD) V5 [4, 12]: 37.5 (20.5)
Mean Pain, Mean (SD) V5 [4, 13]: 38.7 (17.0)
Mean Pain, Mean (SD) V3 [4, 14]: 40.1 (20.0)
Mean Pain, Mean (SD) V3 [4, 15]: 39.0 (16.1)
Mean Pain, Mean (SD) V5 ([4]; PP, naloxone 10 mg/day + oxycodone 40-80 mg/day): 38.8 (18.4)
Mean Pain, Mean (SD) V5 [4, 14]: 36.1 (19.5)
Mean Pain, Mean (SD) V5 [4, 15]: 38.7 (16.6)
Mean Bowel Function Score, Mean (SD) V3 [5, 11]: 53.5 (22.2)
Mean Bowel Function Score, Mean (SD) V3 [5, 12]: 51.3 (21.6)
Mean Bowel Function Score, Mean (SD) V3 [5, 13]: 48.2 (20.6)
Mean Bowel Function Score, Mean (SD) V5 [5, 11]: 40.3 (23.1)
Mean Bowel Function Score, Mean (SD) V5 ([5]; ITT non-missing, naloxone 10 mg/day + oxycodone 40-80 mg/day, listed as naloxone): 40.3 (±23.09) and 40.3 (±23.1)
Mean Bowel Function Score, Mean (SD) V5 [5, 12]: 31.3 (25.8)
Mean Bowel Function Score, Mean (SD) V5 ([5]; ITT non-missing, naloxone 20 mg/day + oxycodone 40-80 mg/day, listed as naloxone): 31.3 (±25.82) and 31.3 (±25.8)
Mean Bowel Function Score, Mean (SD) V5 [5, 13]: 26.1 (25.1)
Mean Bowel Function Score, Mean (SD) V5 ([5]; ITT non-missing, naloxone 40 mg/day + oxycodone 40-80 mg/day, listed as naloxone): 26.1 (±25.08) and 26.1 (±25.1)
Mean Bowel Function Score, Mean (SD) V3 [5, 16]: 53.6 (22.8)
Mean Bowel Function Score, Mean (SD) V3 [5, 17]: 49.9 (23.1)
Mean Bowel Function Score, Mean (SD) V3 [5, 18]: 47.7 (20.5)
Mean Bowel Function Score, Mean (SD) V5 [5, 16]: 40.1 (24.7)
Mean Bowel Function Score, Mean (SD) V5 [5, 17]: 33.2 (28.4)
Mean Bowel Function Score, Mean (SD) V5 [5, 18]: 26.5 (25.7)
Mean (±SD) bowel function ([5]; ITT, Visit 4, naloxone 10 mg/day + oxycodone 40-80 mg/day): 42.1 (±25.53)
Mean (±SD) bowel function ([5]; ITT, Visit 4, naloxone 20 mg/day + oxycodone 40-80 mg/day): 34.2 (±30.04)
Mean (±SD) bowel function ([5]; ITT, Visit 4, naloxone 40 mg/day + oxycodone 40-80 mg/day): 27.9 (±22.68)
Mean (±SD) bowel function ([5]; ITT, end of follow-up (oxycodone only), former 40 mg naloxone group): 42.4 (±23.19)
Mean (±SD) bowel function ([5]; PP, end of maintenance, naloxone 10 mg/day + oxycodone 40-80 mg/day): 39.4 (±23.44)
Mean (±SD) bowel function ([5]; PP, end of maintenance, naloxone 20 mg/day + oxycodone 40-80 mg/day): 29.8 (±29.29)
Mean (±SD) bowel function ([5]; PP, end of maintenance, naloxone 40 mg/day + oxycodone 40-80 mg/day): 29.6 (±28.34)
Oral bioavailability [6]: < 3%
Checked signs of withdrawal ([7]; oxycodone-pump rats, 60-min observation): the rats underwent robust withdrawal
Graded withdrawal signs (escape attempts, wet-dog shakes) ([7]; oxycodone-pump rats, first 15-min): robust withdrawal that was short-lasting that ended within the first 15-min
Graded withdrawal signs (escape attempts, wet-dog shakes) ([7]; oxycodone-pump rats, later intervals up to 45- to 60-min): no longer significantly present throughout the remainder of the experiment
Signs of withdrawal ([7]; vehicle-pump rats): no signs of withdrawal were observed

Reference: US20180008593A1 (Purdue Pharma L.P., priority 2005, published 2018)
